Experimental findings from paper PMC5989455, “Beta-defensin derived cationic antimicrobial peptides with potent killing activity against gram negative and gram positive bacteria” (BMC Microbiology, 2018) are described below.

Bridges are numbered along the chain shown (N, C = ends). Where no end group is shown, it is not given here. Where only a bound is given, the exact number is not on record here.

A word on the MIC: it is the lowest concentration found to suppress growth. Read a low MIC as inhibition by little substance.

The test system of series [1] is S. aureus (ATCC 29213). The format is cell-based, Staphylococcus aureus. The conditions noted are these: ATCC 29213, 24 h. As for the experimental part: (§1) Pseudomonas aeruginosa (P. aeruginosa, ATCC 27853) and Staphylococcus aureus (S. aureus, ATCC 29213) were used to evaluate the novel CAMPs’ antimicrobial activity, salt- and protease-resistance, and membrane permeability. Ten multiple-drug resistant P. aeruginosa and ten methicillin-resistant S. pseudintermedius (MRSP) clinical isolates (Table 2) were used to evaluate the antimicrobial efficacy of CAMPs. The clinical isolates were cultured from diagnostic specimens by the microbiology staff at the University of Missouri Veterinary Medical Diagnostic Laboratory as part of standard service. The isolates were donated to the present project with appropriate permission. All bacterial strains were maintained and grown in Luria-Bertani broth or agar (LB, BD Difco™) at 37 °C as described previously.
(§2) Minimum inhibitory concentrations (MICs) were determined primarily based on the guidelines of the Clinical and Laboratory Standards Institute (CLSI). The Muller Hinton (MH) II broth used in MIC assay contained 20–25 mg/L of calcium and 10–12.5 mg/L of magnesium. The procedures were described in previous studies. In brief, two-fold serially diluted CAMPs (2 to 256 μg/ml) were mixed with appropriate bacterial strains at a final concentration of 5 × 10^5 CFU/ml in a 96-well microtiter plate (Nunc™, Thermo Fisher Scientific). Following incubation at 37 °C for 24 h, MIC was recorded. All assays were conducted in triplicate.

Series [2] deals with P. aeruginosa. It is filed as cell-based, Pseudomonas aeruginosa. Here is the method: as §1
Minimum inhibitory concentrations (MICs) were determined primarily based on the guidelines of the Clinical and Laboratory Standards Institute (CLSI). The Muller Hinton (MH) II broth used in MIC assay contained 20–25 mg/L of calcium and 10–12.5 mg/L of magnesium. The procedures were described in previous studies. In brief, two-fold serially diluted CAMPs (2 to 256 μg/ml) were mixed with appropriate bacterial strains at a final concentration of 5 × 10^5 CFU/ml in a 96-well microtiter plate (Nunc™, Thermo Fisher Scientific). Following incubation at 37 °C for 24 h, MIC was recorded. […]

In series [3] the test system is Gram-positive bacteria (S. aureus, S. pseudintermedius). Nature of the series: Average MIC for Gram-positive bacteria. The conditions noted are these: average over S. aureus ATCC 29213 and 10 MRSP strains (Gram-positive), ± SD. The format is cell-based, Staphylococcus spp. As for the experimental part:
as §2
The hemolytic assay was performed as described previously. […] The supernatant was transferred to a 96-well flat-bottomed polystyrene plate (Thermo Fisher Scientific), and the amount of hemoglobin released into the supernatant was determined by measuring the absorbance with a spectrophotometer at 540 nm. Hemolytic activity was expressed as the percentage of hemolysis and calculated using the following equation: hemolysis (%) = (As-A0)/(A100-A0) × 100, where As is the absorbance of the sample, A100 is the absorbance of completely lysed RBCs in 0.2% Triton X-100, and A0 is the absorbance in the complete absence of hemolysis (PBS treatment). […] The therapeutic index (T.I.) was calculated according to a previously published formula: T.I. = MHC / MICGM [30]. […]

Series [4] relates to mouse red blood cells. It is filed as cell-based. Here is the method: The hemolytic assay was performed as described previously. Briefly, mouse red blood cells (RBCs, Innovative Research, Novi, MI) were washed three times with phosphate-buffered saline (PBS, pH 7.4), centrifuged at 1000×g for 10 min, and resuspended in PBS to 10% (v/v). The RBCs were treated with CAMPs at various concentrations ranging from 4 to 512 μg/ml (2-fold serial dilutions) at 37 °C for 1 h. PBS and 0.2% Triton X-100 were used as negative and positive controls, respectively. The supernatant was transferred to a 96-well flat-bottomed polystyrene plate (Thermo Fisher Scientific), and the amount of hemoglobin released into the supernatant was determined by measuring the absorbance with a spectrophotometer at 540 nm. Hemolytic activity was expressed as the percentage of hemolysis and calculated using the following equation: hemolysis (%) = (As-A0)/(A100-A0) × 100, where As is the absorbance of the sample, A100 is the absorbance of completely lysed RBCs in 0.2% Triton X-100, and A0 is the absorbance in the complete absence of hemolysis (PBS treatment). The assay was performed in triplicate. The therapeutic index (T.I.) was calculated according to a previously published formula: T.I. = MHC / MICGM [30]. […] The MICGM was the minimum inhibitory concentration of the peptide concentrations against bacterial growth after the geometric mean was calculated. […]

Turning to Ac-PIHRRIPPRWPRLKRRW-NH2 [CAMP-t2], the MIC in series [1] turned out to be 64 mg/L.
On the same count and under the same terms, next, Ac-RRRWRKRRWWW-NH2 [CAMP-B]: 32 mg/L.
In series [1], “Ac-RKFLRRRGEVAHFSQKSLGLYCWWW-NH2 [CAMP-t1]” returned an MIC of 64 mg/L.
The substance “SPIHACRYQRGVCIPGPCRWPYYRVGSCGSGLKSCCVRNRWA (disulfide 6-35, 13-28, 18-36 (inferred)) [AvBD-6, reference compound]” yielded an MIC in series [2] (24 h) of more than 256 mg/L. For the same substance, the “MICAverage G-” value in series [2] (average over 11 P. aeruginosa strains (Gram-negative), ± SD) is more than 256 µg/mL. Moreover, the “MICAverage G+” value in series [3] was not below 256 µg/mL.
In turn, Ac-LRRLKPLIRPWLRPLRRWWW-NH2 [CAMP-A] registered an MIC in series [1] of 32 mg/L. In addition, in series [4], the “concentration exhibiting hemolytic and cytotoxic activities” value was not below 128 µg/mL.
